Results taken from ChEMBL document CHEMBL1137656, “Effects of serum on in vitro susceptibility testing of echinocandins” (Antimicrob Agents Chemother, 2007).
Numbered stars: 1 amine (or outer) side, 2 acyl side, 3 side chain; on linkers, the order of the positions; unused ones are H or OH. Bridge positions count the residues as written; N and C are the ends. Square brackets hold non-standard residues; d marks the D form. Peptide text beside a SMILES is read from it. * marks the point of attachment. hTyr(3S-OH,4S-OH,3'-OSO3H) = N[C@H](C(=O)O)[C@H](O)[C@@H](O)c1ccc(O)c(OS(=O)(=O)O)c1; pTerphenylCO(4''-OnC5H11) = CCCCCOc1ccc(-c2ccc(-c3ccc(C(=O)*)cc3)cc2)cc1; Orn(4R-OH,5R-OH) = O=C([C@H](C[C@@H](O)[C@@H](O)N[*:3])N[*:1])[*:2]; hTyr(3S-OH,4S-OH) = N[C@H](C(=O)O)[C@H](O)[C@@H](O)c1ccc(O)cc1; Pro(3S-OH,4S-Me) = C[C@H]1CN[C@H](C(=O)O)[C@H]1O; X1 = CCCCCOc1ccc(-c2cc(-c3ccc(C(=O)*)cc3)no2)cc1; Gln(3R-OH) = NC(=O)C[C@@H](O)[C@H](N)C(=O)O; Hyp = O=C(O)[C@@H]1C[C@@H](O)CN1

Tests used:
Format in all cases: functional
Aspergillus flavus [1] = assay: Ratio of MIC50 for Aspergillus flavus isolate 0001-061 in presence of 50% human serum to MIC50 for Aspergillus flavus isolate 0001-061 in presence of RPMI 1640 medium
Pichia kudriavzevii [2] = assay: Antifungal activity against Candida krusei ATCC 6258 after 24 hrs by CLSI M27-A2 broth microdilution method in presence of RPMI 1640 medium; settings: ATCC 6258, 24 h
Pichia kudriavzevii [3] = assay: Antifungal activity against Candida krusei isolate 0013-054 after 24 hrs by CLSI M27-A2 broth microdilution method in presence of 50% human serum; settings: isolate 0013-054, 24 h
Pichia kudriavzevii [4] = assay: Ratio of MIC50 for Candida krusei isolate 0013-054 in presence of 50% human serum to MIC50 for Candida krusei isolate 0013-054 in presence of RPMI 1640 medium
Clavispora lusitaniae [5] = assay: Antifungal activity against Candida lusitaniae isolate 0013-002 after 24 hrs by CLSI M27-A2 broth microdilution method in presence of RPMI 1640 medium; settings: isolate 0013-002, 24 h
Clavispora lusitaniae [6] = assay: Antifungal activity against Candida lusitaniae isolate 0013-002 after 24 hrs by CLSI M27-A2 broth microdilution method in presence of 50% human serum; settings: isolate 0013-002, 24 h
Candida parapsilosis [7] = assay: Antifungal activity against Candida parapsilosis isolate 0014-074 after 24 hrs by CLSI M27-A2 broth microdilution method in presence of RPMI 1640 medium; settings: Lodderomyces parapsilosis, isolate 0014-074, 24 h
Candida albicans = assay: Ratio of MIC50 for Candida albicans isolate 0012-025 in presence of 50% human serum to MIC50 for Candida albicans isolate 0012-025 in presence of RPMI 1640 medium
Clavispora lusitaniae [8] = assay: Antifungal activity against Candida lusitaniae isolate 0015-049 after 24 hrs by CLSI M27-A2 broth microdilution method in presence of 50% human serum
Candida parapsilosis [9] = assay: Antifungal activity against Candida parapsilosis isolate 0014-074 after 24 hrs by CLSI M27-A2 broth microdilution method in presence of 50% human serum; settings: Lodderomyces parapsilosis, isolate 0014-074, 24 h
Candida parapsilosis [10] = assay: Antifungal activity against Candida parapsilosis isolate 0011-013 after 24 hrs by CLSI M27-A2 broth microdilution method in presence of RPMI 1640 medium; settings: Lodderomyces parapsilosis, isolate 0011-013, 24 h
Candida parapsilosis [11] = assay: Antifungal activity against Candida parapsilosis isolate 0011-013 after 24 hrs by CLSI M27-A2 broth microdilution method in presence of 50% human serum; settings: Lodderomyces parapsilosis, isolate 0011-013, 24 h
Candida parapsilosis [12] = assay: Antifungal activity against Candida parapsilosis isolate 0026-003 after 24 hrs by CLSI M27-A2 broth microdilution method in presence of RPMI 1640 medium; settings: Lodderomyces parapsilosis, isolate 0026-003, 24 h
Candida parapsilosis [13] = assay: Antifungal activity against Candida parapsilosis isolate 0026-003 after 24 hrs by CLSI M27-A2 broth microdilution method in presence of 50% human serum; settings: Lodderomyces parapsilosis, isolate 0026-003, 24 h
Candida parapsilosis [14] = assay: Ratio of MIC50 for Candida parapsilosis isolate 0026-003 in presence of 50% human serum to MIC50 for Candida parapsilosis isolate 0026-003 in presence of RPMI 1640 medium
Candida parapsilosis [15] = assay: Antifungal activity against Candida parapsilosis isolate 0036-030 after 24 hrs by CLSI M27-A2 broth microdilution method in presence of 50% human serum; settings: Lodderomyces parapsilosis, isolate 0036-030, 24 h
Candida parapsilosis [16] = assay: Antifungal activity against Candida parapsilosis ATCC 22019 after 24 hrs by CLSI M27-A2 broth microdilution method in presence of 50% human serum; settings: Lodderomyces parapsilosis, ATCC 22019, 24 h
Nakaseomyces glabratus [17] = assay: Ratio of MIC50 for Candida glabrata isolate 0022-012 in presence of 50% human serum to MIC50 for Candida glabrata isolate 0022-012 in presence of RPMI 1640 medium
Nakaseomyces glabratus [18] = assay: Antifungal activity against Candida glabrata isolate 0049-038 after 24 hrs by CLSI M27-A2 broth microdilution method in presence of RPMI 1640 medium; settings: isolate 0049-038, 24 h
Nakaseomyces glabratus [19] = assay: Antifungal activity against Candida glabrata isolate 0049-038 after 24 hrs by CLSI M27-A2 broth microdilution method in presence of 50% human serum; settings: isolate 0049-038, 24 h
Candida parapsilosis [20] = assay: Ratio of MIC50 for Candida parapsilosis ATCC 22019 in presence of 50% human serum to MIC50 for Candida parapsilosis ATCC 22019 in presence of RPMI 1640 medium
Candida tropicalis [21] = assay: Ratio of MIC50 for Candida tropicalis isolate 0022-021 in presence of 50% human serum to MIC50 for Candida tropicalis isolate 0022-021 in presence of RPMI 1640 medium
Candida tropicalis [22] = assay: Ratio of MIC50 for Candida tropicalis isolate 0050-028 in presence of 50% human serum to MIC50 for Candida tropicalis isolate 0050-028 in presence of RPMI 1640 medium
Aspergillus terreus = assay: Ratio of MIC50 for Aspergillus terreus isolate 0031-087 in presence of 50% human serum to MIC50 for Aspergillus terreus isolate 0031-087 in presence of RPMI 1640 medium
Aspergillus niger [23] = assay: Antifungal activity against Aspergillus niger isolate 0001-073 after 24 hrs by CLSI M38-A broth microdilution method in presence of RPMI 1640 medium; settings: isolate 0001-073, 24 h
Aspergillus niger [24] = assay: Antifungal activity against Aspergillus niger isolate 0001-073 after 24 hrs by CLSI M38-A broth microdilution method in presence of 50% human serum; settings: isolate 0001-073, 24 h
Aspergillus niger [25] = assay: Ratio of MIC50 for Aspergillus niger isolate 0001-073 in presence of 50% human serum to MIC50 for Aspergillus niger isolate 0001-073 in presence of RPMI 1640 medium
Aspergillus fumigatus [26] = assay: Antifungal activity against Aspergillus fumigatus isolate 0002-0016 after 24 hrs by CLSI M38-A broth microdilution method in presence of RPMI 1640 medium; settings: isolate 0002-0016, 24 h
Aspergillus fumigatus [27] = assay: Ratio of MIC50 for Aspergillus fumigatus isolate […] in presence of 50% human serum to MIC50 for Aspergillus fumigatus isolate 0020-018 in presence of RPMI 1640 medium
Aspergillus fumigatus [28] = assay: Antifungal activity against Aspergillus fumigatus isolate 0002-020 after 24 hrs by CLSI M38-A broth microdilution method in presence of RPMI 1640 medium; settings: isolate 0002-020, 24 h
Aspergillus fumigatus [29] = assay: Antifungal activity against Aspergillus fumigatus isolate 0002-020 after 24 hrs by CLSI M38-A broth microdilution method in presence of 50% human serum; settings: isolate 0002-020, 24 h
Aspergillus fumigatus [30] = assay: Ratio of MIC50 for Aspergillus fumigatus isolate 0002-021 in presence of 50% human serum to MIC50 for Aspergillus fumigatus isolate 0002-021 in presence of RPMI 1640 medium
Aspergillus flavus [31] = assay: Antifungal activity against Aspergillus flavus isolate 0001-033 after 24 hrs by CLSI M38-A broth microdilution method in presence of RPMI 1640 medium; settings: isolate 0001-033, 24 h

| SMILES | Ratio (Aspergillus flavus [1]) | MIC50 (Pichia kudriavzevii [2]) | MIC50 (Pichia kudriavzevii [3]) | Ratio (Pichia kudriavzevii [4]) | MIC50 (Clavispora lusitaniae [5]) | MIC50 (Clavispora lusitaniae [6]) | MIC50 (Candida parapsilosis [7]) | Ratio (Candida albicans) | MIC50 (Clavispora lusitaniae [8]) | MIC50 (Candida parapsilosis [9]) | MIC50 (Candida parapsilosis [10]) | MIC50 (Candida parapsilosis [11]) | MIC50 (Candida parapsilosis [12]) | MIC50 (Candida parapsilosis [13]) | Ratio (Candida parapsilosis [14]) | MIC50 (Candida parapsilosis [15]) | MIC50 (Candida parapsilosis [16]) | Ratio (Nakaseomyces glabratus [17]) | MIC50 (Nakaseomyces glabratus [18]) | MIC50 (Nakaseomyces glabratus [19]) | other results |
| --- | --- | --- | --- | --- | --- | --- | --- | --- | --- | --- | --- | --- | --- | --- | --- | --- | --- | --- | --- | --- | --- |
| CCCCCOc1ccc(-c2ccc(-c3ccc(C(=O)N[C@H]4C[C@@H](O)[C@@H](O)NC(=O)[C@@H]5[C@@H](O)[C@@H](C)CN5C(=O)[C@H]([C@@H](C)O)NC(=O)[C@H]([C@H](O)[C@@H](O)c5ccc(O)cc5)NC(=O)[C@@H]5C[C@@H](O)CN5C(=O)[C@H]([C@@H](C)O)NC4=O)cc3)cc2)cc1 [ANIDULAFUNGIN] ({pTerphenylCO(4''-OnC5H11)}-[Orn(4R-OH,5R-OH)]T[Hyp][hTyr(3S-OH,4S-OH)]T[Pro(3S-OH,4S-Me)]; lactam 1-C) | 32 | 0.125 µg/mL | 4 µg/mL | 32 | 0.002 µg/mL | 1 µg/mL | 0.004 µg/mL | 16 | 1 µg/mL | 0.25 µg/mL | 0.0313 µg/mL | 2 µg/mL | 2 µg/mL | 128 µg/mL | 64 | 128 µg/mL | 64 µg/mL | 32 | 0.0625 µg/mL | 2 µg/mL | Ratio (Candida parapsilosis [20]): 128; Ratio (Candida tropicalis [21]): 128; Ratio (Candida tropicalis [22]): 128; Ratio (Aspergillus terreus): 16; MIC50 (Aspergillus niger [23]): 0.001 µg/mL; MIC50 (Aspergillus niger [24]): 0.5 µg/mL; Ratio (Aspergillus niger [25]): 512; MIC50 (Aspergillus fumigatus [26]): 2 µg/mL; Ratio (Aspergillus fumigatus [27]): 256; MIC50 (Aspergillus fumigatus [28]): 0.008 µg/mL; MIC50 (Aspergillus fumigatus [29]): 0.5 µg/mL; Ratio (Aspergillus fumigatus [30]): 64000; MIC50 (Aspergillus flavus [31]): 4 µg/mL |
| CC[C@H](C)C[C@H](C)CCCCCCCCC(=O)N[C@H]1C[C@@H](O)[C@@H](NCCN)NC(=O)[C@@H]2[C@@H](O)CCN2C(=O)[C@H]([C@H](O)CCN)NC(=O)[C@H]([C@H](O)[C@@H](O)c2ccc(O)cc2)NC(=O)[C@@H]2C[C@@H](O)CN2C(=O)[C@H]([C@@H](C)O)NC1=O [CASPOFUNGIN] | 1 | 0.5 µg/mL | 2 µg/mL | 4 | 0.25 µg/mL | 0.25 µg/mL | 0.25 µg/mL | 1 | 1 µg/mL | 0.5 µg/mL | 0.25 µg/mL | 1 µg/mL | 1 µg/mL | 8 µg/mL | 8 | 8 µg/mL | 8 µg/mL | 1 | 0.5 µg/mL | 0.5 µg/mL | Ratio (Candida parapsilosis [20]): 16; Ratio (Candida tropicalis [21]): 1; Ratio (Candida tropicalis [22]): 4; Ratio (Aspergillus terreus): 1; MIC50 (Aspergillus niger [23]): 0.0004 µg/mL; MIC50 (Aspergillus niger [24]): 0.25 µg/mL; Ratio (Aspergillus niger [25]): 512; MIC50 (Aspergillus fumigatus [26]): 8 µg/mL; Ratio (Aspergillus fumigatus [27]): 8; MIC50 (Aspergillus fumigatus [28]): 0.5 µg/mL; MIC50 (Aspergillus fumigatus [29]): 128 µg/mL; Ratio (Aspergillus fumigatus [30]): 128; MIC50 (Aspergillus flavus [31]): 32 µg/mL |
| CCCCCOc1ccc(-c2cc(-c3ccc(C(=O)N[C@H]4C[C@@H](O)[C@@H](O)NC(=O)[C@@H]5[C@@H](O)[C@@H](C)CN5C(=O)[C@H]([C@H](O)CC(N)=O)NC(=O)[C@H]([C@H](O)[C@@H](O)c5ccc(O)c(OS(=O)(=O)O)c5)NC(=O)[C@@H]5C[C@@H](O)CN5C(=O)[C@H]([C@@H](C)O)NC4=O)cc3)no2)cc1 [MICAFUNGIN] (X1-[Orn(4R-OH,5R-OH)]T[Hyp][hTyr(3S-OH,4S-OH,3'-OSO3H)][Gln(3R-OH)][Pro(3S-OH,4S-Me)]; lactam 1-C) | 1024 | 0.0625 µg/mL | 8 µg/mL | 64 | 0.008 µg/mL | 1 µg/mL | 0.0156 µg/mL | 64 | 4 µg/mL | 0.5 µg/mL | 0.0156 µg/mL | 4 µg/mL | 0.5 µg/mL | 64 µg/mL | 128 | 128 µg/mL | 32 µg/mL | 64 | 0.004 µg/mL | 1 µg/mL | Ratio (Candida parapsilosis [20]): 64; Ratio (Candida tropicalis [21]): 128; Ratio (Candida tropicalis [22]): 128; Ratio (Aspergillus terreus): 128; MIC50 (Aspergillus niger [23]): 0.002 µg/mL; MIC50 (Aspergillus niger [24]): 0.25 µg/mL; Ratio (Aspergillus niger [25]): 128; MIC50 (Aspergillus fumigatus [26]): 0.0313 µg/mL; Ratio (Aspergillus fumigatus [27]): 32; MIC50 (Aspergillus fumigatus [28]): 0.004 µg/mL; MIC50 (Aspergillus fumigatus [29]): 0.5 µg/mL; Ratio (Aspergillus fumigatus [30]): 1024; MIC50 (Aspergillus flavus [31]): 0.125 µg/mL |
